pIC50: −log10 of the molar value. Like-named read-outs stand apart in the source and are kept apart here.
Key:
[1] = biological target: ATM (Homo sapiens, UniProt Q13315); experiment: ATM Human PIKK Kinase Enzymatic ELISA/EIA Assay, KinaseProfiler (Eurofins Discovery); type: biochemical; settings: for remaining activity at 1 µM: read-out: ATM, Percent of control at 1 μM; for pIC50: KinaseProfiler, Km ATP, Table 15, read-out: Inhibition of PIKK kinase activity ATM
[2] = biological target: human DNA-PK (Homo sapiens, UniProt P78527); experiment: Inhibition of DNA-PKcs kinase activity, HotSpot assay (Reaction Biology), [γ-33P]-ATP phosphorylation of peptide substrate; type: biochemical; settings: for IC50: 10 μM ATP, 10 μg/ml DNA, mean of two replicates, Table 12, read-out: Inhibition of kinase activity (as IC50) DNA-PK (converted); for pIC50: HotSpot assay Reaction Biology Corp., Table 15, read-out: Inhibition of PIKK kinase activity DNA-PK
[3] = biological target: human PI3Kα (p110α/p85α) (Homo sapiens, UniProt P42336); experiment: Inhibition of PI3Kα kinase activity, ADP-Glo Assay (Reaction Biology); type: biochemical; settings: 10 μM ATP; mean of two replicates; Table 12; read-out: Inhibition of kinase activity (as IC50) PICK
[4] = biological target: ATR/ATRIP (Homo sapiens, UniProt Q13535); experiment: ATR/ATRIP Human PIKK Kinase Enzymatic Radiometric Assay, KinaseProfiler (Eurofins Discovery); type: biochemical; settings: Km ATP, Table 15, read-out: Inhibition of PIKK kinase activity ATR
[5] = test system: UT-SCC-54C cells; experiment: Radiosensitisation of UT-SCC-54C HNSCC cells, regrowth (sulforhodamine B) assay, oxic (Table 16); type: cell-based, human; settings: for pIC50: Homo sapiens, read-out: IC50; for S50: compound in combination with 3 Gy of radiation, 50% inhibition of regrowth fraction, UT-SCC-54C, oxic
[6] = test system: HAP1 cells; experiment: Radiosensitisation of HAP1 wild type cells, regrowth assay; type: cell-based, human; settings: for effect in unirradiated HAP1 cells: 0 Gy; for radiosensitisation / differential growth inhibition of HAP1 cells: 3 Gy cobalt-60 gamma irradiation relative to radiation-only; for pIC50: Homo sapiens, HAP1, read-out: HAP1 wt IC50
[7] = test system: HAP1/PRKDC−/− cells; experiment: Radiosensitisation of DNA-PK null HAP1/PRKDC−/− cells, regrowth assay; type: cell-based, human; settings: for radiosensitisation / differential growth inhibition of DNA-PK null HAP1 line: 3 Gy, HAP1/PRKDC−/−; for pIC50: Homo sapiens, HAP1
[8] = test system: UT-SCC-54C cells; experiment: Radiosensitisation of UT-SCC-54C HNSCC cells, clonogenic survival, oxic and anoxic (Table 18); type: cell-based, human; settings: 20% O2, compound conc 1 μM
[9] = biological target: human mTOR (Homo sapiens, UniProt P42345); experiment: Inhibition of mTOR kinase activity, HotSpot assay, phosphorylation of 4EPB1
[10] = biological target: Ser2056 of DNA-PKcs (Homo sapiens, UniProt P78527); experiment: Inhibition of cellular autophosphorylation at Ser2056 of DNA-PKcs in UT-SCC-54C cells, western immunoblotting; type: cell-based; settings: oxia, 10 Gy, FIG. 7 (10 μM)
[11] = Inhibition of PIKK kinase activity mTOR/FRAP (nM), HotSpot assay Reaction Biology Corp., Table 15
[12] = Inhibition of kinase activity (as IC50) mTOR (nM), 10 μM ATP, mean of two replicates, Table 12

Sequence of ATM (Q13315 whole entry): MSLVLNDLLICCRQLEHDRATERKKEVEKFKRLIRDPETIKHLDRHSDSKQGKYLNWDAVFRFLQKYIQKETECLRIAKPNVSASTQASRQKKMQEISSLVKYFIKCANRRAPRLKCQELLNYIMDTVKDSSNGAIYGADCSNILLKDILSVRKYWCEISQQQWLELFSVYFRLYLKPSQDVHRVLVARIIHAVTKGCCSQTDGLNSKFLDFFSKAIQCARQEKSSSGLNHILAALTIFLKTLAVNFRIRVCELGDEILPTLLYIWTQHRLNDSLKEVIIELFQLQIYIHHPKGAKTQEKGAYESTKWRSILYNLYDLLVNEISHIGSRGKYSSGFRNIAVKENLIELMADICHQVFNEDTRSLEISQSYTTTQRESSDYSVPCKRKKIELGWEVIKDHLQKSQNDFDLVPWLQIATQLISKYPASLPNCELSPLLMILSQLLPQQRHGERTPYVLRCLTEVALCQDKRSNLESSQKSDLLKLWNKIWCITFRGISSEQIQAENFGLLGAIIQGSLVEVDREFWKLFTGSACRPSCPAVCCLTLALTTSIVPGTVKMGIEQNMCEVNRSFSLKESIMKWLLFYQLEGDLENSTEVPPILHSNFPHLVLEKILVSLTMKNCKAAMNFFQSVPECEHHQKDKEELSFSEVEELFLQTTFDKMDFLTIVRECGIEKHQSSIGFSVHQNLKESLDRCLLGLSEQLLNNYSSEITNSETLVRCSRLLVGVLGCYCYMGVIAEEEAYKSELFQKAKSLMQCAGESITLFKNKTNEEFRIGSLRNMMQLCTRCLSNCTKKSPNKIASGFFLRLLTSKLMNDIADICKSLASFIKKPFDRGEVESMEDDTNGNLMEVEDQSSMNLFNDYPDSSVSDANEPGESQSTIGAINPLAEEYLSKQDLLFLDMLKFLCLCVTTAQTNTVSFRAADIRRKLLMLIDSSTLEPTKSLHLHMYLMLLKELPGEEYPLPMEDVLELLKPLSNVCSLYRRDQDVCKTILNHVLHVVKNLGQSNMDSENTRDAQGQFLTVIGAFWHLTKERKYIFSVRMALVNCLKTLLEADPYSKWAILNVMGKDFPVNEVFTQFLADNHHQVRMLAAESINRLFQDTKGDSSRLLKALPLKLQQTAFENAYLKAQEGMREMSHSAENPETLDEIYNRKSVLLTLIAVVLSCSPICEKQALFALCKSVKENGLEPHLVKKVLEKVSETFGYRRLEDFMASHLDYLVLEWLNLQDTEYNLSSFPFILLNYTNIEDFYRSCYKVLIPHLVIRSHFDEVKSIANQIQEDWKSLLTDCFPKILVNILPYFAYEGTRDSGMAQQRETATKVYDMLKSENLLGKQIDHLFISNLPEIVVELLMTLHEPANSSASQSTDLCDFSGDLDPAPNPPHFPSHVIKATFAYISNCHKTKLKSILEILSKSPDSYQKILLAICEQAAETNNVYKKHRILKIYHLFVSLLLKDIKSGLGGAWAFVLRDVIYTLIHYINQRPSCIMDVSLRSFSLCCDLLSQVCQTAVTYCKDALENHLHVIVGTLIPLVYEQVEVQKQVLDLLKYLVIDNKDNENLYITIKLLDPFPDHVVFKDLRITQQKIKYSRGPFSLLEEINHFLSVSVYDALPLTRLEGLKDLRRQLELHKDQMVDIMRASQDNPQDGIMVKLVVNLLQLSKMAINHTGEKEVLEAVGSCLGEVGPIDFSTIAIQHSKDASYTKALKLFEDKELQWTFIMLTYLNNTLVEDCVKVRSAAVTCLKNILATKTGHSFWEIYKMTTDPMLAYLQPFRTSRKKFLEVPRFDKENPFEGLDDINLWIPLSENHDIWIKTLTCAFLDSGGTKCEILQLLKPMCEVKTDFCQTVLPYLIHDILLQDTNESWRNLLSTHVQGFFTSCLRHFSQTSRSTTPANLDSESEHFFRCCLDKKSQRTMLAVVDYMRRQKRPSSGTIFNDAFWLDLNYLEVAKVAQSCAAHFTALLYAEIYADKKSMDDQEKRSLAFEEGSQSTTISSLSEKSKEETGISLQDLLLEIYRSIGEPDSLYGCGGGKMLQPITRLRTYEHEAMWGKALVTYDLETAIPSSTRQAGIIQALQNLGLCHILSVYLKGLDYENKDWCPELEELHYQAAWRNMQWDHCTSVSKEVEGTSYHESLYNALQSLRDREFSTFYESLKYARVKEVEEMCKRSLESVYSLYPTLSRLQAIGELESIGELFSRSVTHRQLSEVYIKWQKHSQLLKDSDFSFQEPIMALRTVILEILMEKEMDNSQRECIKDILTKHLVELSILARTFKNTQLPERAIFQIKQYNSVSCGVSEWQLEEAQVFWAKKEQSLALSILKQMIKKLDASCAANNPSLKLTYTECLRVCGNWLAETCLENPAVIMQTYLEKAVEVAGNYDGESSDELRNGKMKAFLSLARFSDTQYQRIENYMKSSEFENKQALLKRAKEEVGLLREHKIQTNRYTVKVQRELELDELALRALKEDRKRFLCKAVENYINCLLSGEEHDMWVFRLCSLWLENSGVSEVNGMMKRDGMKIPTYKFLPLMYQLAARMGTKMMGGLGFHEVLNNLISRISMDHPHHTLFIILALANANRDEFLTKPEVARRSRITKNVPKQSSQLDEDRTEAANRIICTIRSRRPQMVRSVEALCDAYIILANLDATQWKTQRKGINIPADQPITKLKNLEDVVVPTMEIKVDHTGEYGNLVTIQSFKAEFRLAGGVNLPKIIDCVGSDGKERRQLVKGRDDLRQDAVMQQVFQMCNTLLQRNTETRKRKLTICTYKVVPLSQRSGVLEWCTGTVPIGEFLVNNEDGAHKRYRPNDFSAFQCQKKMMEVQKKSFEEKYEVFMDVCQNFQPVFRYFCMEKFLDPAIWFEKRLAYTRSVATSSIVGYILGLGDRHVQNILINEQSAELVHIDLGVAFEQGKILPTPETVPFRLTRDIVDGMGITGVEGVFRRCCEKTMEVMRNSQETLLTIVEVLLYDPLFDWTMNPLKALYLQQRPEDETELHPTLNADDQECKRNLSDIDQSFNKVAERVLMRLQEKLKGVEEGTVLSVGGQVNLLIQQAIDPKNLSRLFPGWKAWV
Sequence of human PI3Kα (p110α/p85α) (P42336 whole entry): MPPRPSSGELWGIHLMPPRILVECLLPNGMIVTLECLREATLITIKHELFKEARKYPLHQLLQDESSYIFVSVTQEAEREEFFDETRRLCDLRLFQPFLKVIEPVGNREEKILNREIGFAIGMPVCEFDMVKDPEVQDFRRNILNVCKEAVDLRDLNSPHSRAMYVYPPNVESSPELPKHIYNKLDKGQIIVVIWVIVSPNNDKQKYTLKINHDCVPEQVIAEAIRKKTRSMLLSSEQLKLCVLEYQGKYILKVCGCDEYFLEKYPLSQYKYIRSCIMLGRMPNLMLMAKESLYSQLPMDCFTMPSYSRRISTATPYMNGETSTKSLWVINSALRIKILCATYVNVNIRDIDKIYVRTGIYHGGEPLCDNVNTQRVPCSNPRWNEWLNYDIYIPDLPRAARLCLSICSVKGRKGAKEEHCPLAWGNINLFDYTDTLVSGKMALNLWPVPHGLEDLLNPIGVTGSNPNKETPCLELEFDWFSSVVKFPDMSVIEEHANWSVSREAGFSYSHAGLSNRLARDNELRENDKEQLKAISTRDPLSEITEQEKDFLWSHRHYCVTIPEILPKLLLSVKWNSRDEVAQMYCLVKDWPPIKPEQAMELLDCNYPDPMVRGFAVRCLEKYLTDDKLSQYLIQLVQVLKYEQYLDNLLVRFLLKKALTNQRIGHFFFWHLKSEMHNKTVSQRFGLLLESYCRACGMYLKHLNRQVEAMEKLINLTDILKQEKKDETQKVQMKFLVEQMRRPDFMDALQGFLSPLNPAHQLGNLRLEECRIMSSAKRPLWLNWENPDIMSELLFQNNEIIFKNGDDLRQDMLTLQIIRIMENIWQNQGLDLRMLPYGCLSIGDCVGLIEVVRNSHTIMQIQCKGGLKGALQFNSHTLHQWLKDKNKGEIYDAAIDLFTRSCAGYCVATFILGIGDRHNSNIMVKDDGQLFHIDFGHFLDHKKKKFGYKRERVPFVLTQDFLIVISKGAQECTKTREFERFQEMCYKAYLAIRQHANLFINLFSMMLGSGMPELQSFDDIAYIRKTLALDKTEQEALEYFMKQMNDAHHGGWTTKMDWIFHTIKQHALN
Sequence of human PI3Kα (p110α/p85α) (P27986 whole entry partner): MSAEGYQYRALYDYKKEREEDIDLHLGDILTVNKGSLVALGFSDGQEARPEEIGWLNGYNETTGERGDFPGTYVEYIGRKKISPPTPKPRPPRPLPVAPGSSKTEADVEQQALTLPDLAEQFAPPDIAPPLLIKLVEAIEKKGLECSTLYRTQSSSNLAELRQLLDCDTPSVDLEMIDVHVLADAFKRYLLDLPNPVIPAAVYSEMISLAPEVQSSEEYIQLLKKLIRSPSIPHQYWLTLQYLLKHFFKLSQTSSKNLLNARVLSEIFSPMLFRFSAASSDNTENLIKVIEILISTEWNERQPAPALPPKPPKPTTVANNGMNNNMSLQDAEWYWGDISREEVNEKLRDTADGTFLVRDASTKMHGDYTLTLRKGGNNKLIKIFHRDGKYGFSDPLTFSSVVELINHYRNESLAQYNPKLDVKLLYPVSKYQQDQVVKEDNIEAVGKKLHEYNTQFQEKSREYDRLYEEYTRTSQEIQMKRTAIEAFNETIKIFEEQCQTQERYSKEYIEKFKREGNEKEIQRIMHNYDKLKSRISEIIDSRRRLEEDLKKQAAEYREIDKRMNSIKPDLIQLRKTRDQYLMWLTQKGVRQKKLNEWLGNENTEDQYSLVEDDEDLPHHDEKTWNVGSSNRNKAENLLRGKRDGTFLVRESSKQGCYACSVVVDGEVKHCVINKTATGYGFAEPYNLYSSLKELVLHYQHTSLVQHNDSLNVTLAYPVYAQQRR

Structure (SMILES)	remaining activity at 1 µM [1] [%]	pIC50 [1]	IC50 [2] [nM]	pIC50 [2]	pIC50 [3]	pIC50 [5]	S50 [5] [µM]	other results
Cc1cc(NCCN(C)C)ccc1Nc1cc2c(cn1)n(C)c(=O)n2C1CCCC1 [Compound 56, 1-Cyclopentyl-6-((4-((2-(dimethylamino)ethyl)amino)-2-methylphenyl)amino)-3-methyl-1,3-dihydro-2H-imidazo[4,5-c]pyridin-2-one]	86							
Cn1c(=O)n(C2CCCC2)c2cc(Nc3ccc4ncccc4c3)ncc21 [Compound 63, 1-Cyclopentyl-3-methyl-6-(quinolin-6-ylamino)-1,3-dihydro-2H-imidazo[4,5-c]pyridin-2-one]		6.14						
Cn1c(=O)n(C2CCCC2)c2cc(Nc3cnc4ccccc4c3)ncc21 [Compound 64, 1-Cyclopentyl-3-methyl-6-(quinolin-3-ylamino)-1,3-dihydro-2H-imidazo[4,5-c]pyridin-2-one]		5.96						
Cn1c(=O)n(C2CCCC2)c2cc(Nc3cccc4ncccc34)ncc21 [Compound 65, 1-Cyclopentyl-3-methyl-6-(quinolin-5-ylamino)-1,3-dihydro-2H-imidazo[4,5-c]pyridin-2-one]	93							
Cn1c(=O)n(C2CCCC2)c2cc(Nc3cccc4cnccc34)ncc21 [Compound 66, 1-Cyclopentyl-6-(isoquinolin-5-ylamino)-3-methyl-1,3-dihydro-2H-imidazo[4,5-c]pyridin-2-one]	92							
Cc1cc(Nc2cc3c(cn2)n(C)c(=O)n3C2CCCC2)c2ccccc2n1 [Compound 67, 1-Cyclopentyl-3-methyl-6-((2-methylquinolin-4-yl)amino)-1,3-dihydro-2H-imidazo[4,5-c]pyridin-2-one]	88							
Cn1c(=O)n(C2CCCC2)c2cc(Nc3ccc4nccnc4c3)ncc21 [Compound 68, 1-Cyclopentyl-3-methyl-6-(quinoxalin-6-ylamino)-1,3-dihydro-2H-imidazo[4,5-c]pyridin-2-one]		6.03						
Cn1c(=O)n(C2CCCC2)c2cc(Nc3ccccn3)ncc21 [Compound 73, 1-Cyclopentyl-3-methyl-6-(pyridin-2-ylamino)-1,3-dihydro-2H-imidazo[4,5-c]pyridin-2-one]		6.56						
Cc1cc2ncnn2cc1Nc1cc2c(cn1)n(C)c(=O)n2C1CCOCC1 [Compound 125, 3-Methyl-6-((7-methyl-[1,2,4]triazolo[1,5-a]pyridin-6-yl)amino)-1-(tetrahydro-2H-pyran-4-yl)-1,3-dihydro-2H-imidazo[4,5-c]pyridin-2-one]	74		14.3	7.84	4.97	< 5.00	0.67	pIC50 [4]: < 6.00; effect in unirradiated HAP1 cells [6]: little effect; radiosensitisation / differential growth inhibition of HAP1 cells [6]: concentration-dependent radiosensitisation; pIC50 [6]: < 5.00; radiosensitisation / differential growth inhibition of DNA-PK null HAP1 line [7]: did not radiosensitise; pIC50 [7]: < 5.00; D1 (radiation dose for 1% surviving fraction) [8]: 4.90 Gy; D10 (radiation dose for 10% surviving fraction) [8]: 2.49 Gy; SER1 (sensitiser enhancement ratio at 1% surviving fraction) [8]: 1.77; SER10 (sensitiser enhancement ratio at 10% surviving fraction) [8]: 2.17; Plating efficiency drug/no drug ([8]; no radiation): 1.02; IC50 [9, 11]: 43900 nM; IC50 [9, 12]: 43900 nM
Cc1nc2cc(C)c(Nc3cc4c(cn3)n(C)c(=O)n4C3CCOCC3)cc2s1 [Compound 127, 6-((2,5-Dimethylbenzo[d]thiazol-6-yl)amino)-3-methyl-1-(tetrahydro-2H-pyran-4-yl)-1,3-dihydro-2H-imidazo[4,5-c]pyridin-2-one]		5.59	7.11	8.15	5.40	< 5.00	0.22	effect in unirradiated HAP1 cells [6]: little effect; radiosensitisation / differential growth inhibition of HAP1 cells [6]: concentration-dependent radiosensitisation; pIC50 [6]: < 5.00; radiosensitisation / differential growth inhibition of DNA-PK null HAP1 line [7]: did not radiosensitise; pIC50 [7]: < 5.00; IC50 [9, 11]: 5420 nM; IC50 [9, 12]: 5420 nM
CCOC(=O)c1cnc2cc(C)c(Nc3cc4c(cn3)n(C)c(=O)n4C3CCOCC3)cn12 [Compound 129, Ethyl 7-Methyl-6-((3-methyl-2-oxo-1-(tetrahydro-2H-pyran-4-yl)-2,3-dihydro-1H-imidazo[4,5-c]pyridin-6-yl)amino)imidazo[1,2-a]pyridine-3-carboxylate]	79		2.57	8.59	6.50	< 5.00	0.09	effect in unirradiated HAP1 cells [6]: little effect; radiosensitisation / differential growth inhibition of HAP1 cells [6]: concentration-dependent radiosensitisation; pIC50 [6]: < 5.00; radiosensitisation / differential growth inhibition of DNA-PK null HAP1 line [7]: did not radiosensitise; pIC50 [7]: < 5.00; IC50 [9, 11]: 18900 nM; IC50 [9, 12]: 19000 nM
Cn1c(=O)n(-c2ccc(C(C)(C)C#N)cc2)c2cc(Nc3ccc4ncccc4c3)ncc21 [Compound 213, 2-Methyl-2-(4-(3-methyl-2-oxo-6-(quinolin-6-ylamino)-2,3-dihydro-1H-imidazo[4,5-c]pyridin-1-yl)phenyl)propanenitrile]	68		1.23	8.91	5.76	< 5.00	2.22	
COc1ccc(Nc2cc3c(cn2)n(C)c(=O)n3C2CCOCC2)cc1 [Compound 215, 6-((4-Methoxyphenyl)amino)-3-methyl-1-(tetrahydro-2H-pyran-4-yl)-1,3-dihydro-2H-imidazo[4,5-c]pyridin-2-one]	90		51	7.29	4.90	< 5.00	7.5	IC50 [9, 11]: 12300 nM; IC50 [9, 12]: 12300 nM
COc1ccc([C@@H](O)c2cc(-c3ncnc4cc(N5CCOCC5)ccc34)c(F)cc2Cl)nn1 [Compound M3814, reference compound]								inhibition of Ser2056 on DNA-PKcs [10]: demonstrated inhibition

— patent publication US20230365559A1, “NOVEL AMINOPYRIDINES AND THEIR USE IN TREATING CANCER” (priority 2020, published 2023)
